Experimental data reported in patent US7968098B2, “HLA-A24-binding KIF-derived peptide” (Kurume University, priority 2006, dated 2011).
Read-outs that look alike come from different tables or passages of the source. No end group written: not given here.

Legend:
[1] = system: anti-peptide immunoglobulin G (IgG) in plasma; assay: Anti-peptide IgG in plasma measured by the Luminex system; format: binding, human; details: for Total (IgG-positive cases/total cases): positive = >1.25 times no peptide control; for Positive cases/total cases, Patients: Table 3, IgGs reactive to peptide in plasma of glioma patients; for Positive cases/total cases, Healthy donors: Table 3, IgGs reactive to peptide in plasma of healthy donors; for Positive cases/total cases, Total: Table 3, patients plus healthy donors; for Recognition by IgGs in the plasma compared with the other peptides: plasma of glioma patients and healthy donors
Experimental: The levels of anti-peptide immunoglobulin G (IgG) were measured by the Luminex™ system as previously reported (Komatsu N et al, Scand J Clin Invest 2004; 64: 1-11). In brief, plasma was incubated with 25 μl of peptide-coupled color-coded beads (Luminex Corp., Austin, Tex., USA) for 2 h at room temperature on a plate shaker. After incubation, the mixture was washed with a vacuum manifold apparatus and incubated with 100 μl of biotinylated goat anti-human IgG (BA-3080, Vector Laboratories, Burlingame, Calif., USA) for 1 h at room temperature. The plate was then washed, and 100 μl of streptavidin-PE (S-866, Molecular Probes, Eugene, Oreg., USA) was added to each well and was incubated for 30 min at room temperature on a plate shaker. The bound beads were washed three times followed by the addition of 100 μl of Tween-PBS to each well. Fifty μl of each sample was then examined using the Luminex™ system.
Next, the abilities of the KIF-derived peptides to be recognized by IgGs of glioma patients were examined, because IgGs reactive to CTL-directed peptides are detectable in the plasma of patients with different types of cancer (Nakatsura T et al, Eur J Immunol 32: 826-836, 2002), along with that levels of IgG well correlated with clinical responses of patients who received peptide vaccination as reported previously (Mine T et al, Clin Cancer Res 10: 929-937, 2004; Yajima N et al, Clin Cancer Res 11: 5900-5911, 2005). IgGs reactive to a corresponding peptide were judged to be significant when the immunofluorescence intensity in 1:100-diluted plasma exceeded 1.25 times that of the control samples with no peptides. […] Based on these findings, these 8 KIF peptides (3 for KIF1C, 3 for KIF3C, and 2 for KIF21B) were the focus of the following experiments.

[2] = system: PBMCs of HLA-A24+ glioma patients; format: cell-based, human; details: for Total (patients with induction of peptide-reactive CTLs): HLA-A24+ glioma patients, positive = P<0.05 and >100 pg/ml IFN-γ over HIV peptide; for IFN-γ: vs HIV peptide
KNS-81 cells = assay: 6-h 51Cr-release cytotoxicity assay of peptide-stimulated PBMCs / CD8+ T cells; format: cell-based, human; details: for Cytotoxicity of peptide-induced CD8+ T cells on addition of anti-HLA class I mAb / Cytotoxicity on addition of unlabeled C1R-A24 cells pre-pulsed with corresponding KIF peptide (cold inhibition): KNS-81 cells; for Cytotoxicity of peptide-induced CD8+ T cells on addition of anti-HLA class I mAb: FIG. 3A, not inhibited by anti-HLA class II (HLA-DR) or anti-CD14 mAb; for Cytotoxicity on addition of unlabeled C1R-A24 cells pre-pulsed with corresponding KIF peptide (cold inhibition): FIG. 3B, not inhibited by HIV peptide-pulsed C1R-A24 cells; for Cytotoxicity of peptide-stimulated PBMCs against KNS-81 cells: patients 3 and 5, HLA-A24+ KNS-81 vs HLA-A24- No. 11 cells and HLA-A24+ T-cell blasts
Experimental: Peptide-stimulated PBMCs were tested for their cytotoxicity against No. 11 (HLA-A24 negative) and KNS-81 (HLA-A24 positive) by a standard 6-h ^51Cr-release assay. Phytohaemagglutinin (PHA)-activated T cells (T cell blast) from HLA-A24 positive healthy donors were used as a negative control. The PBMCs were stimulated with each of the KIF peptides (10 μg/ml) in the presence of IL-2 (100 units/ml) every 3 days for 15 days, followed by incubation with IL-2 alone for an additional 15 days. After CD8^+ T cells were positively isolated using a CD8-positive isolation kit (Dynal, Oslo, Norway), 2,000 ^51Cr-labeled cells per well were cultured with effector cells in 96-round-well plates. The specific ^51Cr-release was calculated according to the following formula: % specific lysis=(test sample release−spontaneous release)×100/(maximum release−spontaneous release). Spontaneous release was determined using the supernatant of the sample incubated with no effector cells, and the maximum release was then determined by the supernatant of the sample incubated with 1% Triton X (Wako Pure Chemical Industries, Osaka, Japan). In some experiments, anti-HLA class I (W6/32, mouse IgG2a) (BioLegend, Camino Santa Fe, San Diego, Calif., USA), anti-HLA class II (HLA-DR) (L243, mouse IgG2a) (ATCC #HB-55), and anti-CD14 (JML-H14, mouse IgG2a) (established in Department of Immunology, Kurume University) mAb were added to the wells at the initiation of the culture. The specificity of peptide-stimulated PBMCs was also confirmed by a cold inhibition assay. 20,000 unlabeled C1R-A24 cells, which were pre-pulsed with either the HIV peptide or a corresponding peptide, were used as cold target cells. Unlabeled C1R-A24 cells were added at a hot to cold target ratio of […].

[3] = Healthy donor 2, 1:100-diluted plasma
[4] = Healthy donor 4, 1:100-diluted plasma
[5] = glioma Patient 4, 1:100-diluted plasma
[6] = glioma Patient 8, 1:100-diluted plasma
[7] = glioma Patient 9, 1:100-diluted plasma
[8] = PBMCs of HLA-A24+ glioma Patient 1, 10 μg/ml peptide
[9] = PBMCs of HLA-A24+ glioma Patient 2, 10 μg/ml peptide
[10] = PBMCs of HLA-A24+ glioma Patient 4, 10 μg/ml peptide
[11] = PBMCs of HLA-A24+ glioma Patient 5, 10 μg/ml peptide
[12] = PBMCs of HLA-A24+ glioma Patient 8, 10 μg/ml peptide
[13] = PBMCs of HLA-A24+ glioma Patient 10, 10 μg/ml peptide
[14] = PBMCs of HLA-A24+ glioma Patient 3, 10 μg/ml peptide
[15] = PBMCs of HLA-A24+ glioma Patient 9, 10 μg/ml peptide

IYCERVRDL (KIF1C 149-157 peptide)
Immunofluoresence intensity [1, 3]: 31.8
Immunofluoresence intensity [1, 4]: 47.8
Total (IgG-positive cases/total cases) ([1]; Table 2, glioma patients): 7/10
Total (IgG-positive cases/total cases) ([1]; Table 2, healthy donors): 8/10
Positive cases/total cases, Patients [1]: 7/10
Positive cases/total cases, Healthy donors [1]: 8/10
Positive cases/total cases, Total [1]: 15/20
Immunofluoresence intensity [1, 5]: 29.5
Immunofluoresence intensity [1, 6]: 12.3
Immunofluoresence intensity [1, 7]: 27.3
Recognition by IgGs in the plasma compared with the other peptides [1]: more frequently
Total (patients with induction of peptide-reactive CTLs) [2]: 4/10
IFN-γ [2, 8]: 92 pg/mL
IFN-γ [2, 9]: 0 pg/mL
IFN-γ [2, 10]: 50 pg/mL
IFN-γ [2, 11]: 0 pg/mL
IFN-γ [2, 12]: 0 pg/mL
IFN-γ [2, 13]: 0 pg/mL

IYCERVRDLL [KIF1C 149-158]
Cytotoxicity of peptide-induced CD8+ T cells on addition of anti-HLA class I mAb (KNS-81 cells): significantly inhibited
Cytotoxicity on addition of unlabeled C1R-A24 cells pre-pulsed with corresponding KIF peptide (cold inhibition) (KNS-81 cells): significantly inhibited
Cytotoxicity of peptide-stimulated PBMCs against KNS-81 cells (KNS-81 cells): higher level of cytotoxicity against HLA-A24^+ KNS-81 cells

KYKAMESKL [KIF3C 512-520]
Cytotoxicity of peptide-induced CD8+ T cells on addition of anti-HLA class I mAb (KNS-81 cells): significantly inhibited
Cytotoxicity on addition of unlabeled C1R-A24 cells pre-pulsed with corresponding KIF peptide (cold inhibition) (KNS-81 cells): significantly inhibited
Cytotoxicity of peptide-stimulated PBMCs against KNS-81 cells (KNS-81 cells): higher level of cytotoxicity against HLA-A24^+ KNS-81 cells

NYLQEQKERL (KIF3C 458-467 peptide)
Positive cases/total cases, Patients [1]: 4/10
Positive cases/total cases, Healthy donors [1]: 4/10
Positive cases/total cases, Total [1]: 8/20
Recognition by IgGs in the plasma compared with the other peptides [1]: more frequently
Total (patients with induction of peptide-reactive CTLs) [2]: 3/10
IFN-γ [2, 8]: 34 pg/mL
IFN-γ [2, 9]: 0 pg/mL
IFN-γ [2, 14]: 30 pg/mL
IFN-γ [2, 11]: 66 pg/mL
IFN-γ ([2]; PBMCs of HLA-A24+ glioma Patient 6, 10 μg/ml peptide): 55 pg/mL
IFN-γ [2, 12]: 38 pg/mL
IFN-γ [2, 13]: 0 pg/mL

RYADRTKQI (KIF1C 340-348 peptide)
Immunofluoresence intensity [1, 3]: 21.5
Immunofluoresence intensity [1, 4]: 45.3
Immunofluoresence intensity ([1]; Healthy donor 5, 1:100-diluted plasma): 59.0
Total (IgG-positive cases/total cases) ([1]; Table 2, glioma patients): 7/10
Total (IgG-positive cases/total cases) ([1]; Table 2, healthy donors): 7/10
Positive cases/total cases, Patients [1]: 7/10
Positive cases/total cases, Healthy donors [1]: 7/10
Positive cases/total cases, Total [1]: 14/20
Immunofluoresence intensity [1, 5]: 26.0
Immunofluoresence intensity [1, 6]: 14.8
Immunofluoresence intensity [1, 7]: 17.5
Recognition by IgGs in the plasma compared with the other peptides [1]: more frequently
Total (patients with induction of peptide-reactive CTLs) [2]: 3/10
IFN-γ [2, 8]: 66 pg/mL
IFN-γ [2, 9]: 16 pg/mL
IFN-γ [2, 10]: 80 pg/mL
IFN-γ ([2]; PBMCs of HLA-A24+ glioma Patient 7, 10 μg/ml peptide): 65 pg/mL
IFN-γ [2, 12]: 96 pg/mL
IFN-γ [2, 15]: 52 pg/mL
IFN-γ [2, 13]: 0 pg/mL

RYRAENIMF (KIF3C 702-710 peptide)
Positive cases/total cases, Patients [1]: 7/10
Positive cases/total cases, Healthy donors [1]: 9/10
Positive cases/total cases, Total [1]: 16/20
Recognition by IgGs in the plasma compared with the other peptides [1]: more frequently
Total (patients with induction of peptide-reactive CTLs) [2]: 3/10
IFN-γ [2, 8]: 11 pg/mL
IFN-γ [2, 9]: 0 pg/mL
IFN-γ [2, 14]: 73 pg/mL
IFN-γ [2, 10]: 0 pg/mL
IFN-γ [2, 12]: 96 pg/mL
IFN-γ [2, 15]: 22 pg/mL
IFN-γ [2, 13]: 0 pg/mL
